In PubChem BioAssay AID1259407 (Chemical Carcinogenesis Research Information System (CCRIS), 2018):
Calls of active or inactive are those of the source. No rule for the calls is given here.

Tested on: CCRIS mutagenicity, Ames/micronucleus/aberration tests
Assay: CCRIS mutagenicity studies
[1] = Test System: AMES SALMONELLA TYPHIMURIUM, Strain/Indicator: TA100, Metabolic Activation: NONE, Method: PREINCUBATION

| Structure (SMILES) | mutagenic call (Test System: AMES SALMONELLA TYPHIMURIUM, Strain/Indicator: TA98, Metabolic Activation: NONE, Method: PREINCUBATION) | mutagenic call (Test System: AMES SALMONELLA TYPHIMURIUM, Strain/Indicator: TA98, Metabolic Activation: RAT, LIVER, S-9, AROCLOR, Method: PREINCUBATION) | mutagenic call (Test System: AMES SALMONELLA TYPHIMURIUM, Strain/Indicator: TA98, Metabolic Activation: RAT, LIVER, S-9, KANECHLOR 500, Method: PREINCUBATION) | mutagenic call [1] | mutagenic call (Test System: AMES SALMONELLA TYPHIMURIUM, Strain/Indicator: TA100, Metabolic Activation: RAT, LIVER, S-9, AROCLOR, Method: PREINCUBATION) | mutagenic call (Test System: AMES SALMONELLA TYPHIMURIUM, Strain/Indicator: TA100, Metabolic Activation: RAT, LIVER, S-9, KANECHLOR 500, Method: PREINCUBATION) | mutagenic call (Test System: AMES SALMONELLA TYPHIMURIUM, Strain/Indicator: TA102, Metabolic Activation: NONE, Method: PREINCUBATION) | mutagenic call (Test System: AMES SALMONELLA TYPHIMURIUM, Strain/Indicator: TA102, Metabolic Activation: RAT, LIVER, S-9, AROCLOR, Method: PREINCUBATION) | mutagenic call (Test System: E. COLI, Strain/Indicator: WP2 UVRA (PKM101), Metabolic Activation: NONE, Method: PREINCUBATION) | mutagenic call (Test System: E. COLI, Strain/Indicator: WP2 UVRA (PKM101), Metabolic Activation: RAT, LIVER, S-9, KANECHLOR 500, Method: PREINCUBATION) | mutagenic call (Test System: UDS RAT HEPATOCYTES, Strain/Indicator: THY INCORP, Metabolic Activation: NONE) | mutagenic call (Test System: AMES SALMONELLA TYPHIMURIUM, Strain/Indicator: TA100, Metabolic Activation: RAT, LIVER, S-9, PCB, Method: PREINCUBATION) |
| --- | --- | --- | --- | --- | --- | --- | --- | --- | --- | --- | --- | --- |
| CCCC[N+](=O)[O-] | inactive; negative | inactive; negative | inactive; negative | inactive; negative | inactive; negative | inactive; negative | inactive; negative | inactive; negative | inactive; negative | inactive; negative | inactive; negative | – |
| Cc1cccc(NO)c1C | – | – | – | active; positive | – | – | – | – | – | – | – | active; positive |
